Entries after “also recorded” stand apart in the source; their conditions may differ. Read-outs that look alike come from different tables or passages of the source.
Legend:
TA-VSMCs = experiment: [3H]thymidine labeling (DNA synthesis) in TA-VSMCs; type: cell-based
From the text: Effect of calcium channel activation on DNA synthesis. Effect of glutamate receptor calcium channels and L-type calcium channels activation was examined by measuring [^3H]thymidine labeling.

c-myb [1] = experiment: c-myb expression in TA-VSMCs; type: cell-based; conditions: NMDA receptor blockers
c-myb [2] = experiment: c-myb expression in N-VSMC (RT-PCR, immunoprecipitation and western blot); type: cell-based, chicken; conditions: for effect on homocysteine-induced c-myb induction: 200 μM H[cys], 50 μM Mk-801 or 1 mM CGS19755, 24 hours
Protocol: FIGS. 3A, 3B and 3C are RNA blot analyses of c-fos and c-myb mRNA isolated from N-VSMC cultures. Cultures were incubated in the absence and presence of 200μM H[cys] for 0, (lane 1); 15 min, (lane 2); 30 min, (lane 3); 45 min, (lane 4) and 60 min, (lane 5); and analyzed for c-fos expression. In FIG. 3B, the time course of c-myb MRNA induction in the presence of 200μM H[cys] for 0 h, (lane 1); 8 h, (lane 2); 16 h, (lane 3); 24 h, (lane 4). The c-fos transcripts were analyzed by northern blot and normalized to β actin expression. The amount of c-myb mRNA levels were normalized to estrogen receptor (ER) transcripts as determined by RT-PCR. […] The amount of c-myb mRNA levels were normalized to estrogen receptor (ER) transcripts as determined by RT-PCR. The amount of specific radiolabeling in the autoradiograph was quantified by scanning densitometry. The size of the c-Myb protein is 75 kilodaltons. The 75 kilodalton band is defined as c-Myb because immunoprecipitation of this protein was not detected in the presence of synthetic polypeptide [[…] encoded by sequences 1080-1133].
FIG. 4 is a graph illustrating the analysis of c-myb synthesis in response to NMDA receptor antagonist, Mk-801 and CGS19755. Immunoprecipitation and western blotting of radiolabeled c-Myb from N-VSMC treated with 200μMH[cys] in the presence and absence of 50 μM Mk-801 or 1 mM CGS19755. Cell cultures were treated with and without H[cys] for 24 hours, extracts were immunoprecipitated with anti c-myb IgG and samples were separated by SDS-PAGE gels and western blotted. The amount of specific radiolabeling in the autoradiograph was quantified by scanning densitometry. The size of the c-Myb protein is 75 kilodaltons. The 75 kilodalton band is defined as c-Myb because immunoprecipitation of this protein was not detected in the presence of synthetic polypeptide [I13-[…] encoded by sequences 1080-1133].
RNA Blot Analysis: Total RNA was isolated from VSMC derived from thoracic and abdominal aorta by homogenization, and lysis with guanidinium isothiocyanate was followed by phenol-chloroform extraction. Ten micrograms of total RNA per lane was separated in a 1.5% agarose-formaldehyde gel, and the RNA was transferred by capillary transfer to a 0.45 μm nylon membrane. Filters were hybridized as previously with cDNAs labeled with [^32P]deoxycytidine5′-triphosphate to specific activities of approximately 2×10^9 cpm/μg using a random prime labeling kit (Boehringer Mannheim Biochemicals, Indianapolis, Ind.). The probes included chicken c-fos, Bactin, estrogen receptor (ER) and c myb.
Reverse Transcriptase-Polymerase Chain Reaction: Reverse transcription of 4 to 10,000 nanograms (ng) of RNA using 10 picomoles (pm) of hexamer primers was performed for 90 minutes (min) at 37° C. using 200 units superscript reverse transcriptase (Gibco BRL), in 50 mM Tris, pH, 8.2, 75 Mm KC1, 3 mM MgCl2, 10 mM dithiothreitol (DTT), 1 unit/μ1 RNasin (Promega), and 1 mM each of DATP, dCTP, dGTP, and dTTP. The samples were heated at 95° C. for 5 min to terminate the reverse transcription. The resulting cDNA was treated with 1 unit of […] at 37° C. for 20 min. A 5% fraction of the cDNA was subjected to PCR using c-myb upstream (5′ggTCCTTTgAAgATgCTgCC3′) and downstream(5′[…]gAgTCCgggTTg3′) primers; estrogen receptor (ER) (5′ggACTgCCAgCTgCCgATCTT3′) and (5′CTCACgAATgTggCgCCT3′) primers; β actin (5′AAgAggTAATCCTgACCCCTgAA3′) and (5′ACCCTgACCATCAgggAgTTCA3′) primers. PCR was performed using 0.25 μM of each primer, 3 μM cDNA, 0.2 mM of each deoxynucleotide triphosphate, 75 mM KC1, 1.5 mM MgCl2 and 0.5 unit Taq polymerase (Perkin Elmer; Cetus) in 10 mM Tris-HC1, pH 8.3 with total volume of 100 μl. […] PCR products were analyzed by electrophoresis in 1.5% agarose gels stained with ethidium bromide. PCR amplifications of all target templates and controls were run in parallel or on the same sample. […]

N-VSMC [3] = experiment: Cell proliferation (cell number) of N-VSMC cultures; type: cell-based, chicken; conditions: for effect on increase in cell number in the presence of H[cys]: 1% FBS and 100 μM H[cys]; for cell damage after treatment for ten days: low levels of PKC inhibitors, growth after removal
Protocol: FIGS. 5A and 5B are graphs illustrating cell growth and DNA synthesis of N-VSMC cultures. (A) Cells were cultured in M199 supplemented with 1% FBS in the presence and absence of 100 μM H[cys]. The medium was renewed every three days and cell numbers were determined by Coulter counter or emocytometer. Each point represents the mean of quadruplicate samples counted six times. (B) Cells were grown to confluency, growth arrested in M199 and 1 μg/ml of bovine serum albumin for two days. Cultures were exposed to various concentrations of H[cys] (0.01-1000 μM) for 30 h, pulse labeled for 6 h with 2 μCi/ml of [^3H]thymidine. The amount of [^3H]thymidine incorporation was determined by scintillation spectrophotometry. Results are shown as the mean of ±S.E.M.
FIGS. 7A-7C are graphs illustrating the effect of H[cys] on diacylglycerol content in N-VSMC. (A) Time course of changes of membrane diacylglycerol content cell treated with 100μM H[cys] for the various times. Cells were recovered, membrane lipids extracted and diacylglycerol amounts determined as described in Methods. Results are expressed as the mean ± standard error of quadruplicate incubations from six independent experiments. (B) Effects of varying concentrations of H[cys] on diacylglycerol synthesis. Cells were treated for 30 min with different concentrations of H[cys] and membrane lipids were isolated and the diacylglycerol content determined. (C) Effect of PKC inhibitors on H[cys] mediated cell proliferation. N-VSMC cultures were grown in 1% FBS and 100 μM H[cys] in the presence and absence of staurosporine and cheleyrithrine chloride for the times (days-d) indicated. Cells were counted in quadruplicate in a Coulter counter every three days. Values represent the mean ±S.D. from four independent experiments.
(§1) Smooth Muscle Culture: The thoracic (N) and abdominal (M) aorta of normal 16 and 18-day embryos were cleaned of fat, and the intima-media was isolated from the adventitia. The intima-media was enzymatically dispersed into a single cell suspensions by a combination of collagenase and elastase followed by trypsin. VSMC were placed in primary culture at a constant density of 2×10^4 cells/cm^2 in multiwell plates or 100 mm culture plates in Medium 199 supplemented with 10% fetal bovine serum (FMS) and 2 mM glutamine, in an atmosphere of 95% air: 5% Co2 at 37° C. Primary cultures were grown for 7 days before they were seeded into first passage at the same cell density and grown to confluence. Experiments were carried out between passages 3-6. Experimental conditions for all cells included 48 h in Medium 199 supplemented with 1% FBS prior to initiating and experiment.

[4] = system: Thoracic aorta VSMC from E14 embryos; experiment: Intracellular Ca++ by Fura 2 fluorometry; type: cell-based, chicken; conditions: 15 min pretreatment
Protocol: FIGS. 8A and 8B are graphs illustrating E14 embryonic neural crest-derived response to Hcy. (A) Normal E14 cell response; (B) Ca++ influx is prevented by 15 min pretreatment with NMDA receptor blocker MK801, which acts at the NMDA receptor calcium channel.
The most common signaling device for mitosis is calcium influx. Therefore, the inventors measured the change in intracellular Ca^++ by Fura 2 fluorometry. Thoracic aorta VSMC from E14 embryos were harvested and grown on coverslips using the procedure set forth above. Fura 2 was added during 45 minutes at room temperature. Then the cover slips were placed in a photometer. Fura 2 was excited at 350 and 380 nm with a xenon light source, appropriate monochromators and a chopper (Deltascan, Princeton). Emitted signals passed through a 510±20 band pass filter. When the cells were treated with a solution of 200 μM Hcy, there was a rapid flux of Ca^++ that reached a plateau in about 50 seconds, and remained elevated for the duration of the 500 sec measurement interval as shown in FIGS. 8A and 8B. Similar results have been found with adult rabbit aortic smooth muscle cells, as set forth below.

N-VSMC [5] = experiment: [3H]thymidine incorporation (DNA synthesis) in N-VSMC cultures; type: cell-based, chicken
Protocol: FIG. 1 is a graph illustrating homocysteine's effects on the growth of VSMC cultures. Confluent N-VSMC cultures were growth arrested by incubating cells with M199 medium containing 1 μg/ml BSA for 48 h, exposed to various concentrations of H[cys] (0.01-4000μM) for 30 h, pulse labeled for 6 h with 2 μCi/ml [^3H]-thymidine, and cell monolayers were washed twice with cold (0° C.) 10% trichloroacetic acid (TCA). The amount of [^3H]-thymidine incorporation was determined by scintillation spectrophotometry. Results are shown as the means of ±S.D.
FIGS. 2A-2C are graphs illustrating the effects of glutamate, homocysteic acid and NMDA on DNA synthesis in N-VSMC. N-VSMC were cultured and serum-deprived as described in “Experimental Procedures.” Cultures were treated with various concentrations of homocysteic acid (2A), NMDA (2B), or L-glutamate (2C) for 30 and pulsed 6h with [^3H] thymidine. All values are expressed as ±S.D. of six independent experiments completed in quadruplicate.
as §1
DNA Synthesis: Growth factors were added directly to quiescent VSMCs in Medium 199 as described above. The cells were pulsed between 4-6 h with a final concentration of 2-5 μCi/ml [^3H]thymidine added at the times and for the periods indicated in the figure legends. The cells were washed, and the incorporation of [^3H]thymidine into acid insoluble material was determined as previously described. Den-Heijer, M. et al. (1996), Hyperhomocystinemia as a risk factor for deep-vein thrombosis. N. Eng. J. Med. 334(12):759-762.

[6] = high doses; cited from earlier work
VSMC = conditions: low concentrations

O=C(O)[C@@H]1C[C@H](CP(=O)(O)O)CCN1 [CGS 19755]
effect on NMDA and homocysteine DNA synthesis responses (TA-VSMCs): blocked
effect on homocysteine effect on c-myb expression (c-myb [1]): blocked
effect on homocysteine-induced c-myb induction (c-myb [2]): blocked
effect on homocysteine-induced c-myb induction (c-myb [2]; listed as CGS19755): block
effect on homocysteine-induced cell proliferation (N-VSMC [3]): inhibited; also recorded: no increase in cell proliferation
effect on homocysteine-induced cell proliferation (N-VSMC [3]; listed as CGS19755): block

O=C(O)CN(CCOCCOCCN(CC(=O)O)CC(=O)O)CC(=O)O [EGTA]
effect on stimulation of DNA synthesis (TA-VSMCs; chelation of extra cellular Ca2+ by addition to the medium): prevented

C[C@]12N[C@H](Cc3ccccc31)c1ccccc12 [MK-801]
effect on NMDA and homocysteine DNA synthesis responses (TA-VSMCs): blocked
effect on homocysteine effect on c-myb expression (c-myb [1]): blocked
effect on homocysteine-induced c-myb induction (c-myb [2]): completely suppressed; also recorded: block
effect on homocysteine-induced cell proliferation (N-VSMC [3]): inhibited
effect on homocysteine-induced cell proliferation (N-VSMC [3]; listed as Mk-801): block
effect on Hcy-induced Ca++ influx [4]: prevented

CN[C@H](CC(=O)O)C(=O)O [NMDA, N-methyl D-aspartate acid]
[3H] thymidine increased (TA-VSMCs; incubated with NMDA): 2 fold
expression of Myb, agonist per se (c-myb [2]; embryonic smooth muscle cells): did not induce
activation of the same responses as H[cys] (N-VSMC [5]): do not significantly activate
[3H] thymidine incorporation stimulated (N-VSMC [5]; 10 mM): 2 fold

COc1ccc2c(c[n+](C)c3c4cc5c(cc4ccc23)OCO5)c1OC.[Cl-] [cheleyrthrine chloride]
effect on increase in cell number in the presence of H[cys] (N-VSMC [3]): blocked
cell damage after treatment for ten days (N-VSMC [3]): did not permanently damage the cells

COc1ccc2c(c1)[C@]13CCCC[C@@H]1[C@H](C2)N(C)CC3 [dextromethorphan]
side effects [6]: drowsiness, nausea, and decreased coordination

CCO [ethanol]
effect on pharmacological effect of homocysteine in VSMC (VSMC): completely blocked

N[C@@H](CCC(=O)O)C(=O)O [glutamate, L-glutamate]
activation of the same responses as H[cys] (N-VSMC [5]): do not significantly activate
[3H] thymidine incorporation stimulated (N-VSMC [5]; 10 mM): 2 fold

N[C@@H](CCS(=O)(=O)O)C(=O)O [homocysteic acid]
[3H] thymidine incorporation stimulated (N-VSMC [5]; 1 mM): 2 fold

CN[C@@H]1C[C@H]2O[C@@](C)([C@@H]1OC)n1c3ccccc3c3c4c(c5c6ccccc6n2c5c31)C(=O)NC4 [staurosporine]
effect on increase in cell number in the presence of H[cys] (N-VSMC [3]): blocked
cell damage after treatment for ten days (N-VSMC [3]): did not permanently damage the cells
